By IC50 is commonly meant the concentration needed to halve the response being measured.

Molecules are shown by their SMILES.

One assay concerns IL-1β production in PMA-differentiated THP-1 cells. Kind of assay: IL-1β production in PMA-differentiated THP-1 cells stimulated with gramicidin (hTHP-1 assay, 2% fetal bovine serum; Procedures 1-3). The assay is classed as cell-based, human. Conditions: Homo sapiens, THP-1, hTHP-1 assay containing 2% fetal bovine serum; class symbols; read-out: hTHP-1 IC50 (Average IC50 of compounds in hTHP-1 assay). The procedure, abridged: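 PMA-differentiated (20 ng/ml, 16-18 h) THP-1 cells in RPMI with 2% FBS, 50,000 cells/well, preincubated 1 h with compound (final 100–0.0017 μM, 0.37% DMSO), then stimulated with 5 μM gramicidin for 2 h. Supernatant IL-1β measured by HTRF.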
Consider `CN(C)Cc1ccc(S(N)(=O)=NC(=O)Nc2c3c(cc4c2CCC4)CCC3)cc1` (stereo not drawn) [Example 28, 4-((dimethylamino)methyl)-N′-(1,2,3,5,6,7-hexahydro-s-indacen-4-ylcarbamoyl)benzenesulfonimidamide], for which the IC50 was in the range of 40 to 200 nM.

As for `CN(C)Cc1cc(F)c(S(N)(=O)=NC(=O)Nc2c3c(cc4c2CCC4)CCC3)s1` (stereo not drawn) [Example 279, 5-((Dimethylamino)methyl)-3-fluoro-N′-(1,2,3,5,6,7-hexahydro-s-indacen-4-ylcarbamoyl)thiophene-2-sulfonimidamide], the IC50 is 8 to 40 nM. With `CC(C)c1cc(C#N)cc(C(C)C)c1NC(=O)N=S(N)(=O)c1cc(C#N)cc(C(C)(C)O)c1` (stereo not drawn) [Example 67, 3-cyano-N′-((4-cyano-2,6-diisopropylphenyl)carbamoyl)-5-(2-hydroxypropan-2-yl)benzenesulfonimidamide], the IC50 was 200 to 1000 nM. Consider `CC(C)c1cc(C#N)c(F)c(C(C)C)c1NC(=O)N=S(N)(=O)c1cnc(C(C)(C)O)s1` (stereo not drawn) [Example 15, N′-(4-cyano-3-fluoro-2,6-diisopropylphenylcarbamoyl)-2-(2-hydroxypropan-2-yl)thiazole-5-sulfonimidamide], for which the IC50 lay within 40 to 200 nM. As to `CNS(=O)(=NC(=O)Nc1c2c(cc3c1CCC3)CCC2)c1cnc(C(C)(C)O)s1` (stereo not drawn) [Example 247, N′-((1,2,3,5,6,7-hexahydro-s-indacen-4-yl)carbamoyl)-2-(2-hydroxypropan-2-yl)-N-methylthiazole-5-sulfonimidamide], the IC50 was 5000 to 30000 nM. The same measure, in the same setting: as for `Cc1nc(C(C)(C)O)sc1S(N)(=O)=NC(=O)Nc1c2c(c(F)c3c1CCC3)CCC2` (stereo not drawn) [Example 59, N′-((8-fluoro-1,2,3,5,6,7-hexahydro-s-indacen-4-yl)carbamoyl)-2-(2-hydroxypropan-2-yl)-4-methylthiazole-5-sulfonimidamide], the figure is 8 to 40 nM.

Still in this assay, the particulars now being: hTHP-1 assay containing 2% fetal bovine serum; class symbols; read-out: hTHP-1 IC50 (Average IC50 of compounds in hTHP-1 assay).
With `CC1CCc2cc3c(c(NC(=O)N=S(N)(=O)c4cnc(C(C)(C)O)s4)c21)CCC3` (single isomer, unassigned) [Example 333, (S,R) or (S,S)-2-(2-hydroxypropan-2-yl)-N′-((3-methyl-1,2,3,5,6,7-hexahydro-s-indacen-4-yl)carbamoyl)thiazole-5-sulfonimidamide], the IC50 is 1000 to 5000 nM. For the molecule `CC(C)(O)c1csc(S(N)(=O)=NC(=O)Nc2c3c(c(F)c4c2CCC4)CCC3)n1` (single isomer, unassigned) [Example 311, (S) or (R)-N′-((8-fluoro-1,2,3,5,6,7-hexahydro-s-indacen-4-yl)carbamoyl)-4-(2-hydroxypropan-2-yl)thiazole-2-sulfonimidamide], the IC50 lay in the range of 200 to 1000 nM. The same measure, in the same setting: the value for `CC(c1ccc(S(N)(=O)=NC(=O)Nc2c3c(cc4c2CCC4)CCC3)cc1)N(C)C` (single isomer, unassigned) [Example 378, (R,S) or (R,R) or (S,R) or (S,S)-4-(1-(dimethylamino)ethyl)-N′-((1,2,3,5,6,7-hexahydro-s-indacen-4-yl)carbamoyl)benzenesulfonimidamide] was 200 to 1000 nM; that for `CC(C)c1cc(C#N)c(F)c(C(C)C)c1NC(=O)N=S(N)(=O)c1cnc(C(C)(O)CO)s1` (single isomer, unassigned) [Example 316, Two isomers of (R,R) or (R,S) or (S,S) or (S,R)-N′-((4-cyano-3-fluoro-2,6-diisopropylphenyl)carbamoyl)-2-(1,2-dihydroxypropan-2-yl)thiazole-5-sulfonimidamide] was 200 to 1000 nM. Turning to `Cc1nc(C(C)(C)O)sc1S(N)(=O)=NC(=O)Nc1c2c(c(F)c3c1CCC3)CCC2` (single isomer, unassigned) [Example 177], the IC50 lay in the range of 1000 to 5000 nM.

As for `CC(c1ccc(S(N)(=O)=NC(=O)Nc2c3c(cc4c2CCC4)CCC3)cc1)N(C)C` (single isomer, unassigned) [Example 371, (S) or (R)-4-(1-(dimethylamino)ethyl)-N′-((1,2,3,5,6,7-hexahydro-s-indacen-4-yl)carbamoyl)benzenesulfonimidamide], the IC50 is 5000 to 30000 nM. With `CC(C)(O)c1csc(S(N)(=O)=NC(=O)Nc2c3c(cc4c2CC4)CCC3)n1` (single isomer, unassigned) [Example 341, (R) or (S)-4-(2-hydroxypropan-2-yl)-N′-((2,4,5,6-tetrahydro-1H-cyclobuta[f]inden-3-yl)carbamoyl)thiazole-2-sulfonimidamide], the IC50 is under 8 nM.

In the case of `CN(C)Cc1ccc(S(N)(=O)=NC(=O)Nc2c3c(cc4c2CCC4)CCC3)cc1` (single isomer, unassigned) [Example 117], the IC50 is 40 to 200 nM. Consider `CC1CCc2c1cc1c(c2NC(=O)N=S(N)(=O)c2cnc(C(C)(C)O)s2)CCC1` (single isomer, unassigned) [Example 321, (S,S) or (S,R)-2-(2-hydroxypropan-2-yl)-N′-((1-methyl-1,2,3,5,6,7-hexahydro-s-indacen-4-yl)carbamoyl)thiazole-5-sulfonimidamide (from Example 291)], for which the IC50 lay in the range of 1000 to 5000 nM. As for `CC(C)(O)c1cc(S(N)(=O)=NC(=O)Nc2c3c(c(F)c4c2CCC4)CCC3)ccc1F` (single isomer, unassigned) [Example 175], the IC50 is 1000 to 5000 nM. As to `CC(C)c1cc(F)cc(C(C)C)c1NC(=O)N=S(N)(=O)c1cc(C(C)(C)O)cs1` (single isomer, unassigned) [Example 140], the IC50 lay in the range of 8 to 40 nM. Same read-out and setting: the value for `Cc1oc(S(N)(=O)=NC(=O)Nc2c3c(cc4c2CCC4C)CCC3)cc1C(C)(C)O` (single isomer, unassigned) [Example 125] was 40 to 200 nM; that for `Cc1oc(S(N)(=O)=NC(=O)Nc2c3c(c(F)c4c2CCC4)CCC3)cc1C(C)(C)O` (single isomer, unassigned) [Example 149] was 200 to 1000 nM.

With `Cc1cc(C(C)(C)O)ccc1S(N)(=O)=NC(=O)Nc1c2c(cc3c1CCC3)CCC2` (single isomer, unassigned) [Example 100], the IC50 was 5000 to 30000 nM.

On to `CC(C)c1cc(C#N)c(F)c(C(C)C)c1NC(=O)N=S(N)(=O)c1cnc(C(C)(O)CO)s1` (single isomer, unassigned) [Example 318, (S,S) or (S,R) or (R,R) or (R,S)-N-((4-cyano-3-fluoro-2,6-diisopropylphenyl)carbamoyl)-2-(1,2-dihydroxypropan-2-yl)thiazole-5-sulfonimidamide], for which the IC50 lay in the range of 200 to 1000 nM. Still for that read-out and setting: the value for `Cc1oc(S(N)(=O)=NC(=O)Nc2c(C(C)C)cc(C#N)c(F)c2C(C)C)cc1C(C)(C)O` (single isomer, unassigned) [Example 81] was 8 to 40 nM. On the same count and under the same terms, the value for `CC(C)(O)c1ccc(S(N)(=O)=NC(=O)Nc2c3c(cc4c2CCC4)CCC3)cc1F` (single isomer, unassigned) [Example 179] was 1000 to 5000 nM. Regarding `CC(C)c1cc(C#N)cc(C(C)C)c1NC(=O)N=S(N)(=O)c1ncc(C(C)(C)O)s1` (single isomer, unassigned) [Example 131], the concentration for half-maximal inhibition (IC50) is 1000 to 5000 nM. As to `CC(C)(O)c1csc(S(N)(=O)=NC(=O)Nc2c3c(cc4c2CC4)CCC3)n1` (single isomer, unassigned) [Example 342, (R) or (S)-4-(2-hydroxypropan-2-yl)-N′-((2,4,5,6-tetrahydro-1H-cyclobuta[f]inden-3-yl)carbamoyl)thiazole-2-sulfonimidamide], the IC50 was 200 to 1000 nM. In the case of `CC(C)c1ccc(F)c(C(C)C)c1NC(=O)N=S(N)(=O)c1cnc(C(C)(C)O)s1` (single isomer, unassigned) [Example 298, (R) or (S)-N′-((3-fluoro-2,6-diisopropylphenyl)carbamoyl)-2-(2-hydroxypropan-2-yl)thiazole-5-sulfonimidamide], the IC50 fell in the range of 40 to 200 nM. For `CC(c1ccc(S(N)(=O)=NC(=O)Nc2c3c(cc4c2CCC4)CCC3)cc1)N(C)C` (single isomer, unassigned) [Example 372, (R) or (S)-4-(1-(dimethylamino)ethyl)-N′-((1,2,3,5,6,7-hexahydro-s-indacen-4-yl)carbamoyl)benzenesulfonimidamide], the IC50 was in the range of 40 to 200 nM. Turning to `Cc1cc(S(N)(=O)=NC(=O)Nc2c(C(C)C)cc(OC(F)F)cc2C(C)C)sc1C(C)(C)O` (single isomer, unassigned) [Example 173], the IC50 was in the range of 1000 to 5000 nM. Same read-out and setting: as for `Cc1oc(S(N)(=O)=NC(=O)Nc2c3c(cc4c2CCC4C)CCC3)cc1C(C)(C)O` (single isomer, unassigned) [Example 123], the figure is 40 to 200 nM; as for `CC(C)(O)c1cc(F)cc(S(N)(=O)=NC(=O)Nc2c3c(c(F)c4c2CCC4)CCC3)c1` (single isomer, unassigned) [Example 170], 1000 to 5000 nM. Turning to `CC(C)(O)c1ncc(S(N)(=O)=NC(=O)Nc2c3c(cc4c2CCC4=O)CCC3)s1` (single isomer, unassigned) [Example 336, (R) or (S)-2-(2-Hydroxypropan-2-yl)-N′-((1-oxo-1,2,3,5,6,7-hexahydro-s-indacen-4-yl)carbamoyl)thiazole-5-sulfonimidamide from Example 293], the IC50 was 200 to 1000 nM. For the molecule `COC(C)(C)c1ccc(S(N)(=O)=NC(=O)Nc2c3c(cc4c2CCC4)CCC3)cc1` (single isomer, unassigned) [Example 400, (S) or (R)-N′-((1,2,3,5,6,7-hexahydro-s-indacen-4-yl)carbamoyl)-4-(2-methoxypropan-2-yl)benzenesulfonimidamide], the IC50 was in the range of 5000 to 30000 nM. Turning to `CN1CCCC1c1ccc(S(=N)(=O)NC(=O)Nc2c3c(cc4c2CCC4)CCC3)cc1` (single isomer, unassigned) [Example 409, (R,S) or (S,R) or (S,R) or (R,R)-N-((1,2,3,5,6,7-hexahydro-s-indacen-4-yl)carbamoyl)-4-(1-methylpyrrolidin-2-yl)benzenesulfonimidamide], the IC50 was 200 to 1000 nM.

Values taken from patent publication US11724992B2 (Novartis AG, priority 2017, dated 2023).
